Experiment [1] is described as follows: H33342 accumulation assay. In kind it is cell-based, Pseudomonas aeruginosa ATCC 27835. Conditions: P. aeruginosa; 25 μM.
The subject of experiment [2] is diverse panel of E. coli strains. In words: Cumulative MICs (MIC50, MIC90) for levofloxacin and piperacillin ± 25 μM MBX2319. In kind it is cell-based, Escherichia coli. Particulars: E. coli strain panel. From the text: • Strains and Reagents. The following strains were obtained from the Keio collection (Baba, et al.: Construction of Escherichia coli K-12 in-frame, single-gene knockout mutants: the Keio collection. In Mol Syst Biol, vol. 2, pp. 2006 0008, (2006)): JW0451 (ΔacrB::kan), JW5503 (ΔtolC::kan), JW3234 (ΔacrF::kan), JW2661 (ΔemrB::kan), JW0863 (ΔmacB::kan). The deletion mutations in each of these strains were transferred to AB1157 using P1 phage transduction (see Table 1). The construction of the E. coli cell-based reporter strain (SOS-XXX) that was used for high throughput screening is described in detail in the supplementary information. […] Irgasan was a generous gift from Ciba Speciality Chemicals, Inc. (High Point, N.C.). Hoechst 33342 (H33342) was purchased from Molecular Probes (Eugene, Oreg.). […] Luria Broth (Miller) and agar were purchased as prepared dehydrated media from Becton Dickenson (Franklin Lakes, N.J.). The compound libraries used in high-throughput screens were purchased from Chembridge (San Diego, Calif.), ChemDiv (San Diego, Calif.), and TimTec (Newark, Del.). MBX2319 was synthesized by Microbiotix, Inc. • Antibacterial Activity Assays. The minimal inhibitory concentration (MIC) of antibacterial agents and biocides were determined using the microbroth dilution method essentially as described in the CLSI protocol M7-A7 (CLSI: Method for dilution antimicrobial susceptibility testing for bacteria that grow aerobically; Approved standard-document M7-A7. In Clinical and Laboratory Standards Institute document M7-A7, Clinical and Laboratory Standards Institute, Wayne, Pa., (2006)), with the following exceptions. LB media was used instead of MHB. […] The final concentration of DMSO in each assay was 2%. […] MIC assays were performed in triplicate and the geometric mean was calculated. Checkerboard MIC assays using an EPI and an antibacterial agent were performed essentially as described (Pillai, et al.: Antimicrobial Combinations. In Antibiotics in Laboratory Medicine, ed. by V. Lorian, pp. 365-440, Lippincott Williams & Wilkins, Philadelphia, Pa., (2005)), with the same modifications used for the MIC assays described above. • Time-Kill Assays. Killing curve assays were performed essentially as described (Pillai, et al.: Antimicrobial Combinations. In Antibiotics in Laboratory Medicine, ed. by V. Lorian, pp. 365-440, Lippincott Williams & Wilkins, Philadelphia, Pa., (2005)). […] Viability was monitored over 2-4 hours by making serial dilutions in saline and spotting 5 μl of each dilution onto the surface of an LB agar plate in triplicate. Colonies were counted after the plates were incubated at 37° C. for 16-18 hr, colony forming units (CFU) per ml were calculated, and the average and standard deviation for the three replicates was determined. […]

Experiment [3] concerns the target AcrAB-TolC efflux pump (Escherichia coli, UniProt P31224). Kind of experiment: H33342 accumulation assay. In kind it is cell-based, Escherichia coli 285. More on the design: endogenous in cells; host or cells: E. coli strains 285 and 287 (ciprofloxacin-resistant mutants of AB1157). Particulars: hyper-efflux strain 285.
For experiment [4], the system named is Klebsiella pneumoniae ATCC 700603. In words: MIC assay (microbroth dilution) ± 25 μM EPI. In kind it is cell-based. The procedure, abridged:
(§1)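 CLSI M7-A7 broth microdilution, modified: LB medium, DMSO 2% final. Triplicate runs, geometric mean reported. Checkerboard drug/EPI grids set up identically. Deletion strains: Keio mutations P1-transduced into AB1157.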
Background: Dilution methods test growth across graded concentrations, often in twofold steps.

The test system of experiment [5] is Escherichia coli AB1157. Kind of experiment: MIC assay (microbroth dilution) ± 25 μM EPI. The class given is cell-based. Conditions: Escherichia coli, AB1157, read-out: MICs (μg/ml) ± EPIs: None. Summed up: as §1
For experiment [6], the system named is Escherichia coli 331. Kind of experiment: MIC assay (microbroth dilution) ± 25 μM EPI. In kind it is cell-based. Conditions: E. coli 331. The procedure, abridged:
(§2)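 Knockout alleles from Keio strains were moved into AB1157 by P1 transduction. MICs were determined by CLSI M7-A7 microbroth dilution, with LB replacing MHB and 2% final DMSO. Checkerboard combinations used the same modifications, and values are geometric means of triplicates.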

For experiment [7], the system named is Shigella flexneri ATCC 12022. In words: MIC assay (microbroth dilution) ± 25 μM EPI. In kind it is cell-based. The procedure, abridged: as §2
Experiment [8] deals with Enterobacter aerogenes ATCC 13048. In words: MIC assay (microbroth dilution) ± 25 μM EPI. The class given is cell-based. The procedure, abridged:
as §1

In experiment [9] the test system is Salmonella enterica ATCC 14028. Kind of experiment: MIC assay (microbroth dilution) ± 25 μM EPI. The class given is cell-based. The procedure, abridged: as §1
Experiment [10] has as its system Escherichia coli ATCC 25922. In words: MIC assay (microbroth dilution) ± 25 μM EPI. The class given is cell-based. Summed up: as §1
[11] abbreviates: MIC no cmpd/MIC + 25 μM MBX2319.

Here are results for two compounds from patent publication US9540389B2, “Antimicrobial potentiators” (priority 2013, dated 2017).

Each structure is given as a SMILES string.

Sequence of AcrAB-TolC efflux pump (P31224 whole entry): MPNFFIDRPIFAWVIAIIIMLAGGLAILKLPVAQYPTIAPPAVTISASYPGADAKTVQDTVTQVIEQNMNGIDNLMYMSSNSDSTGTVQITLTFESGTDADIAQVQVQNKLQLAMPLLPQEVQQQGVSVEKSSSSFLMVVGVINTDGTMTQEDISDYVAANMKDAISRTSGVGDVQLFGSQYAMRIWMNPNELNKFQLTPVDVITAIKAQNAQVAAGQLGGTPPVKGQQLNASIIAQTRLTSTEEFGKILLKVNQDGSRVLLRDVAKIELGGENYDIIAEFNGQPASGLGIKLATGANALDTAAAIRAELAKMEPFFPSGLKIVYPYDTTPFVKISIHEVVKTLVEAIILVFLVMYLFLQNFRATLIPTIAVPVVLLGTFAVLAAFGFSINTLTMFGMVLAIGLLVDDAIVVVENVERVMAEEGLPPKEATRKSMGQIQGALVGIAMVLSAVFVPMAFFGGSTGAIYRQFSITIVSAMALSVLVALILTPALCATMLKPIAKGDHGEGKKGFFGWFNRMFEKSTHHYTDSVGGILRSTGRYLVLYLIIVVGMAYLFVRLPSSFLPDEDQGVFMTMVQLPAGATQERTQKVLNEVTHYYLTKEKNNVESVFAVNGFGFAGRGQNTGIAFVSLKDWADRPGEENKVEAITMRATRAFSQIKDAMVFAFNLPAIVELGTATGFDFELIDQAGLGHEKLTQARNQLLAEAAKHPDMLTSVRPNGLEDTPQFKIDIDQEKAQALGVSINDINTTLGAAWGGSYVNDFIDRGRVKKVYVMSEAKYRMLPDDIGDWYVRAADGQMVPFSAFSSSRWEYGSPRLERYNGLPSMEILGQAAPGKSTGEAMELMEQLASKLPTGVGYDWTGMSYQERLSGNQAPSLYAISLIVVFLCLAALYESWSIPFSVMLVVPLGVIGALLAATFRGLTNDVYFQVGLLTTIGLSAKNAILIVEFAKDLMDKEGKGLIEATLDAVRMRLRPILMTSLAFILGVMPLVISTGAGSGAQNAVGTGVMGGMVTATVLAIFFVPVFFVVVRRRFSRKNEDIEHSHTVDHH
Sequence of AcrAB-TolC efflux pump (P0AE06 25-397, further chain): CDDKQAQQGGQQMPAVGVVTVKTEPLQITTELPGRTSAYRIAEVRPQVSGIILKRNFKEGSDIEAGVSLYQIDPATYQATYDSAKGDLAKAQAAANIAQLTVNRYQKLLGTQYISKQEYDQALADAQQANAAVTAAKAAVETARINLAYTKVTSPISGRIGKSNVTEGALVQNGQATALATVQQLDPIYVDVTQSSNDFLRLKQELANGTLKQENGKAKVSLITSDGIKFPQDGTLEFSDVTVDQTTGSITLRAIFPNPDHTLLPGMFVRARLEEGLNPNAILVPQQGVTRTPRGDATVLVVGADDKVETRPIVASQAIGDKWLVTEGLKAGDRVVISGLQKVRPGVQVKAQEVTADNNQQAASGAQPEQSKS
Sequence of AcrAB-TolC efflux pump (P02930 23-493, further chain): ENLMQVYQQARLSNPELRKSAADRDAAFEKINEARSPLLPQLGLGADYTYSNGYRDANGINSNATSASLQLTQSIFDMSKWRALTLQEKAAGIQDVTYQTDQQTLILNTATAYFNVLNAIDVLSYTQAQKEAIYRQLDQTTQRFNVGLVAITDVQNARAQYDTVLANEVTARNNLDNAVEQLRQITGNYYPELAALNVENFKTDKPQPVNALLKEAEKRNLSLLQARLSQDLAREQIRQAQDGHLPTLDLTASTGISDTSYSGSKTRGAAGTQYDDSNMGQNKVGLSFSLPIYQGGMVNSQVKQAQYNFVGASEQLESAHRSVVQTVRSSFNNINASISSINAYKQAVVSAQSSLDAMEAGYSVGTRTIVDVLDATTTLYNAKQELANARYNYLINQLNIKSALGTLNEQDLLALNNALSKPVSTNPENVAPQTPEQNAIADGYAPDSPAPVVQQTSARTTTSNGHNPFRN

`CC1(C)Cc2c(C#N)c(SCCc3ccccc3)nc(N3CCOCC3)c2CO1` [MBX2319]: in [1], the H33342 accumulation result was “weak activity”. Also, in [2], the “decrease of MIC50 for LEV” value is reported as “four fold”, the “decrease of MIC90 for LEV” value is recorded as “four fold”, the “effect on MIC50 for PIP” value was “did not have a significant effect” and the “effect on MIC90 for PIP” value is on record as “did not have a significant effect”. Besides, in experiment [3], the H33342 accumulation entry is “increased H33342 accumulation”.
For `CCN1CCN(C(=O)N[C@@H](C(=O)N[C@@H]2C(=O)N3[C@@H]2SC(C)(C)[C@@H]3C(=O)O)c2ccccc2)C(=O)C1=O` [Piperacillin, piperacillin], the “MIC (μg/ml) ± EPI: MBX2319” value in experiment [4] (+ 25 μM MBX2319) is 113 µg/mL; in experiment [6] (+ 25 μM MBX2319), 0.707 µg/mL; in experiment [7] (Shigella flexneri ATCC 12022, + 25 μM MBX2319) it was 0.25 µg/mL; in [8] (+ 25 μM MBX2319) it was 1.4 µg/mL; in experiment [9] (+ 25 μM MBX2319) it was 0.5 µg/mL; in [10] (E. coli ATCC 25922, + 25 μM MBX2319), 1.68 µg/mL. Moreover, the “MIC (μg/ml) ± EPI: PAβN” value was 113 µg/mL in [4] (+ 25 μM PAβN); 4 µg/mL in [6] (+ 25 μM PAβN); 1 µg/mL in experiment [7] (Shigella flexneri ATCC 12022, + 25 μM PAβN); 16 µg/mL in experiment [8] (+ 25 μM PAβN); 4 µg/mL in [9] (+ 25 μM PAβN); 4 µg/mL in experiment [10] (E. coli ATCC 25922, + 25 μM PAβN). The MIC stood at 113 µg/mL in experiment [4] (ATCC700603, no EPI, read-out: MIC (μg/ml) ± EPI: None); 4 µg/mL in experiment [5]; 4 µg/mL in [6] (Escherichia coli, no EPI, read-out: MIC (μg/ml) ± EPI: None); 1 µg/mL in [7] (Shigella flexneri, ATCC12022, read-out: MIC (μg/ml) ± EPI: None); 4 µg/mL in experiment [8] (Klebsiella aerogenes, ATCC13048, no EPI, read-out: MIC (μg/ml) ± EPI: None); 2.4 µg/mL in [9] (ATCC14028, no EPI, read-out: MIC (μg/ml) ± EPI: None). Also, the MIC in experiment [10] (Escherichia coli, ATCC25922, read-out: MIC (μg/ml) ± EPI: None) was found to be 2.83 µg/mL. In addition, the “MIC Ratio MBX2319” value in experiment [4] (setting [11]) was 1; in [6] (setting [11]), 5.6; in experiment [7] (Shigella flexneri ATCC 12022, MIC no cmpd/MIC + 25 μM MBX2319), 4; in experiment [8] (setting [11]), 2.8; in [9] (setting [11]), 4.8; in experiment [10] (E. coli ATCC 25922, MIC no cmpd/MIC + 25 μM MBX2319) it was 1.7. Also, the “MIC Ratio PAβN” value in experiment [4] (MIC no cmpd/MIC + 25 μM PAβN) turned out to be 1; in experiment [6] (MIC no cmpd/MIC + 25 μM PAβN) it was 1; in experiment [7] (Shigella flexneri ATCC 12022, MIC no cmpd/MIC + 25 μM PAβN), 1; in experiment [8] (MIC no cmpd/MIC + 25 μM PAβN), 0.2; in experiment [9] (MIC no cmpd/MIC + 25 μM PAβN), 0.6; in experiment [10] (E. coli ATCC 25922, MIC no cmpd/MIC + 25 μM PAβN), 0.7.
